pIC50: −log10 of the molar value.
Experiments:
[1] = test system: SAS cells; test: SAS CTG proliferation assay (120 h) (HNSCC, wt amplified); type: cell-based
How it was run: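 SAS cells plated at 300 per well in DMEM:F12 with 10% FCS and left overnight, then given compounds acoustically. After 120 h exposure, viability read by CellTiter-Glo as percent of DMSO control. IC50 from four-parameter non-linear regression.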

[2] = molecular target: KRAS (G12C)::SOS1 (Homo sapiens (Human), UniProt P01116, C118S/C51S/C80L/G12C); test: KRAS::SOS1 AlphaScreen binding assay, KRAS G12C
How it was run: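 KRAS 1-169 (biotinylated avi-tag) with GST-SOS1 564-1049 and 10 µM GDP in PBS/0.1% BSA/0.05% Tween 20: WT and G13D 10 nM each with 10 nM SOS1; G12D 10 nM and G12C 7.5 nM with 5 nM SOS1. After 30 min, glutathione acceptor/streptavidin donor beads were added for 60 min at RT in the dark, then AlphaScreen read; 4-parameter IC50.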

[3] = Plasma protein binding assay (PPB), equilibrium dialysis, 10% FCS in PBS; type: in vitro ADME; settings: bovine, read-out: PPB 10% FCS (% fu)
How it was run: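 Equilibrium dialysis (5-10 kg/mol cut-off membrane) of 1-10 μmol/L test compound in 10% FCS/PBS against PBS with or without dextran, 3-5 h at 37° C. Compound in each chamber quantified by LC-MS after protein precipitation; fu calculated from Cserum and Cbuffer.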

Sequence of KRAS (G12C)::SOS1 (P01116 other isoform, or with tags, fused parts or gaps G12C/C51S/C80L/C118S): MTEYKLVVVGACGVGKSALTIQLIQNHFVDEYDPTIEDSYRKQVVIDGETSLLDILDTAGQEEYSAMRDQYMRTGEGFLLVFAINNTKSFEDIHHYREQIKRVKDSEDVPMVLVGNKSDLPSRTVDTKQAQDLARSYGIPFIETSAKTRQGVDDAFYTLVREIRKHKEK

SMILES | pIC50 [2] | fraction unbound [3] | pIC50 [1]
C[C@H](Oc1cc(N2CCNC3(COC3)C2)nc(-c2noc3c2CCC[C@@]32CCCc3sc(N)c(C#N)c32)n1)[C@@H]1CCCN1C [II-31] | 8.70 | 0.63 | 6.68
C[C@H](Oc1cc(N2C[C@H]3CN(C)C[C@H]3C2)nc(-c2noc3c2CCC[C@@]32CCCc3sc(N)c(C#N)c32)n1)[C@@H]1CCCN1C [II-33] | 8.10 | 0.68 | 6.22
C[C@H](Oc1cc(N2CC3CCC(C2)N3)nc(-c2noc3c2CCC[C@@]32CCCc3sc(N)c(C#N)c32)n1)[C@@H]1CCCN1C [II-34] | 8.52 | 0.37 | 5.71
C[C@@H]1CN(c2cc(O[C@@H](C)[C@@H]3CCCN3C)nc(-c3noc4c3CCC[C@@]43CCCc4sc(N)c(C#N)c43)n2)C[C@H](C)N1 [II-36] | 8.70 | 0.57 | 6.75
C[C@H](Oc1cc(N2CCN(C)CC2)nc(-c2noc3c2CCC[C@@]32CCCc3sc(N)c(C#N)c32)n1)[C@@H]1CCCN1[C@@H]1CCOC1 [II-39] | 8.22 | 0.17 | 5.53
C[C@H](Oc1cc(N2CCNC3(CCC3)C2)nc(-c2noc3c2CCC[C@@]32CCCc3sc(N)c(C#N)c32)n1)[C@@H]1CCCN1C [II-40] | 8.52 | 0.53 | 6.01
C[C@H](Oc1cc(N2CCNC3(CCCC3)C2)nc(-c2noc3c2CCC[C@@]32CCCc3sc(N)c(C#N)c32)n1)[C@@H]1CCCN1C [II-41] | 8.05 | 0.1 | 5.68
C[C@H](Oc1cc(-c2ccn([C@H]3CCCOC3)n2)nc(-c2noc3c2CCC[C@@]32CCCc3sc(N)c(C#N)c32)n1)[C@@H]1CCCN1C [II-42] | 8.70 | 0.1 | 6.58
C[C@H](Oc1cc(-c2ccn(C[C@@H]3CCCO3)n2)nc(-c2noc3c2CCC[C@@]32CCCc3sc(N)c(C#N)c32)n1)[C@@H]1CCCN1C [II-43] | 9.00 | 0.11 | 7.62
C[C@H](Oc1cc(C2CCCO2)nc(-c2noc3c2CCC[C@@]32CCCc3sc(N)c(C#N)c32)n1)[C@@H]1CCCN1C (stereo partly drawn) [II-44] | 8.70 | 0.39 | 5.22
[2H]C([2H])([2H])N1C[C@H](F)C[C@H]1[C@H](C)Oc1cc(N2CCNC3(CC3)C2)nc(-c2noc3c2CCC[C@@]32CCCc3sc(N)c(C#N)c32)n1 [II-208] | 9.00 | 0.15 | 6.14

Continued by rising pIC50 [2], values first:

pIC50 [2] | fraction unbound [3] | SMILES | pIC50 [1]
7.72 | 0.64 | C[C@H]1CN(C)CCCN1c1cc(N2CCN(C)CC2)nc(-c2noc3c2CCC[C@@]32CCCc3sc(N)c(C#N)c32)n1 [II-30] | 4.97
8.15 | 0.77 | CN[C@H]1CCN(c2cc(O[C@@H](C)[C@@H]3CCCN3C)nc(-c3noc4c3CCC[C@@]43CCCc4sc(N)c(C#N)c43)n2)C1 [II-35] | 5.32
8.15 | 0.62 | C[C@H](Oc1cc(N2CCC(N(C)C)CC2)nc(-c2noc3c2CCC[C@@]32CCCc3sc(N)c(C#N)c32)n1)[C@@H]1CCCN1C [II-48] | 5.41
8.40 | 0.34 | C[C@H](Oc1cc(N2CC[C@@H](N(C)C)C2)nc(-c2noc3c2CCC[C@@]32CCCc3sc(N)c(C#N)c32)n1)[C@@H]1CCCN1C [II-47] | 5.58
8.40 | 0.06 | [2H]C([2H])([2H])N1C[C@H](F)C[C@H]1[C@H](C)Oc1cc(N2CCN(C)C3(CC3)C2)nc(-c2noc3c2CCC[C@@]32CCCc3sc(N)c(C#N)c32)n1 [II-209] | 6.13
8.52 | 0.71 | C[C@H](Oc1cc([C@@H]2CCN(C)C2)nc(-c2noc3c2CCC[C@@]32CCCc3sc(N)c(C#N)c32)n1)[C@@H]1CCCN1C [II-37] | 5.90
8.52 | 0.61 | C[C@H](Oc1cc(N2CCNCC2)nc(-c2noc3c2CCC[C@@]32CCCc3sc(N)c(C#N)c32)n1)[C@@H]1CCCN1C [II-45] | 6.28
8.70 | 0.31 | C[C@H](Oc1cc(N2CCNC(C)(C)C2)nc(-c2noc3c2CCC[C@@]32CCCc3sc(N)c(C#N)c32)n1)[C@@H]1CCCN1C [II-32] | 5.08
8.70 | 0.54 | C[C@H](Oc1cc([C@H]2CCN(C)C2)nc(-c2noc3c2CCC[C@@]32CCCc3sc(N)c(C#N)c32)n1)[C@@H]1CCCN1C [II-38] | 7.33

From US20240174690A1, “ANNULATED 2-AMINO-3-CYANO THIOPHENES AND DERIVATIVES FOR THE TREATMENT OF CANCER” (BOEHRINGER INGELHEIM INTERNATIONAL GMBH, priority 2021, published 2024)
